Laboratory results: patent US7354910B2, “Agent for treating inflammatory bowel diseases” (Seikagaku Kogyo Kabushiki Kaisha, priority 2001, dated 2008)

Test system: trinitrobenzenesulfonic acid (TNBS)-induced inflammatory bowel disease model
Assay: Effect of HA on TNBS-induced inflammatory bowel disease model
Type: in vivo, rat
Experimental: An inflammatory bowel disease model was prepared by carrying out irrigation of colon of a rat with 0.5 ml of 50 mg/ml TNBS (50% ethanol solution). The TNBS-induced inflammatory bowel disease model is a generally used model which has been established as an induced inflammatory bowel disease model (e.g., see GASTROENTEROLOGY, Vol. 109, No. 4, pp. 1344-1367 (1995), and the like).
In order to examine effect of HA on inflammatory bowel diseases, the following drug effect and pharmacological test was carried out using the inflammatory bowel disease model prepared in the above.
The inflammatory bowel disease model animals were divided into the following groups according to respective tested substances, and 2 ml of physiological saline solution (0.3% (w/v)) of each of the following tested substances was injected into the tail vein of each experimental animal.
In the control group, the first administration was carried out just after the preparation of the above model, and then the administration was continuously carried out once a day for 20 days.
In the HA post-administered group, the first administration was carried out just after the preparation of the above model, and then the administration was continuously carried out once a day for 20 days.
In the HA pre-administered group, the first administration was carried out 24 hours before the preparation of the above model, and then the administration was continuously carried out once a day for 20 days.
During the administration period of tested substances, surviving conditions of the animals were observed every day.
In addition, observation and measurement of the following points were carried out on the animals survived on the 20th day after the first administration.
Also, the following numerical values are expressed as “average value±standard error”.
The large intestine was excised and cut open, and the contents were washed using physiological saline. After the adhered moisture was removed, the weight of the large intestine tissue was measured to calculate the weight per 1 cm bowel tissue. Also, the following numerical values are expressed as “average value±standard error”.
Section samples of bowel tissue were prepared and observed under a light microscope.

[1] = HA post-administered group in comparison with the control group, 20th day, light microscope, FIG. 3

## sodium hyaluronate [HA]
HA administered groups, animals survived on the 20th day after the first administration, severe in control group
  conditions of diarrhea: hardly observed
[1]
  cell infiltration, microscopic observation of bowel tissue: inhibited significantly
  edema, microscopic observation of bowel tissue: significantly alleviated
HA post-administered group, 20th day after the first administration, control 175 ± 4 g, p<0.001
  body weight (average value±standard error): 203 ± 3 g
HA post-administered group, 20th day after the first administration, control 448 ± 60, p<0.001
  weight of the large intestine tissue per 1 cm bowel tissue (bowel tissue edema; average value±standard error): 51 ± 1 mg/cm bowel tissue
HA pre-administered group (first administration 24 hours before model preparation, 2 ml of 0.3% (w/v) into tail vein once a day), after a lapse of 200 hours
  survival ratio: 100%
Each of the HA administered groups (post and pre), 2 ml of 0.3% (w/v) i.v. once a day for 20 days, p=0.0086 Logrank test, FIG. 1
  survival rate in comparison with the control group: significantly improved
